{"source": "paper PMC10630888", "about": "“Nuclear ERK1/2 signaling potentiation enhances neuroprotection and cognition via Importinα1/KPNA2” (EMBO Molecular Medicine, 2023)", "format_in_all_cases": "in vivo, mouse", "key": {"MEK-1 phosphorylation": {"test_system": "MEK-1 phosphorylation", "assay": "Striatal phospho-MEK-1 immunohistochemistry 1 h after single injection", "settings": "single injection 20 mg/kg i.p., individual mice", "description": "(§1) Immunohistochemistry was performed as described in Papale et al ([2016]). Briefly, 1 h after blocking in 5% normal goat serum and 0.1% Triton X‐100 solution, free‐floating sections were incubated overnight at 4°C with one of the following primary antibodies: anti‐phospho‐p44/42 MAP kinase (Thr202/Tyr204) (1:200, Cell Signaling Technology #9101), anti‐phospho–Elk‐1 (Ser383) (1:100, Cell Signaling #9181), anti‐phospho‐Kv4.2 (Thr607)‐R (1:100, Santa Cruz sc22254‐R), anti‐phospho‐MSK‐1 (1:100 Cell Signaling Technology #9595), anti‐phospho‐MEK1/2 (Ser218/222) (1:100, sc‐7995 Santa Cruz Biotechnology), c‐Fos (1:100, sc‐52 Santa Cruz Biotechnology), tyrosine Hydroxylase (monoclonal 1:1,000, Sigma Aldrich, Italy) and anti‐DARPP‐32 (H3) (1:100, Santa Cruz Biotechnology, #sc‐271111) overnight at 4°C. […]\n(§2) For in vivo immunohistochemistry experiments, images were acquired from the dorsal striatum using a Leica DM IRB microscope under a 20× objective. The number of p‐ERK, p‐MSK‐1, p‐ELK, p‐MEK‐1, p‐VG K+, c‐Fos, and DARPP‐32 positive cells was counted in 2–3 consecutive sections per mouse, bilaterally and averaged across the sections using the ImageJ software by a blind investigator to the condition. Estimation of nigral cell loss was assessed by quantifying the number of TH‐immunopositive neurons of the SNc in 360 μm‐spaced sections for each animal."}, "[1]": {"test_system": "voltage-gated K+ (Kv4.2) channel phosphorylation", "assay": "Striatal phospho-Kv4.2 immunohistochemistry 1 h after single injection", "settings": "single injection 20 mg/kg i.p., individual mice", "description": "as §1, §2"}, "[2]": {"assay": "RB5 brain levels by HPLC-MS/MS", "design": "Brain levels measured with mass spectrometry: unit not given here", "settings": "single 20 mg/kg i.p.; for Brain levels measured with mass spectrometry: mouse brain homogenate, individual mice, 20 mg/kg", "description": "RB5 was quantified in the mouse brain using HPLC‐MS/MS. Brain samples were homogenized with 1:4 w/v of 50% acetonitrile 5% TFA in water with a homogenizer ultra‐turrax and then centrifuged at 13,000 rpm for 10 min at 4°C. The supernatant was collected and centrifuged at 15,871 g for 2 min at 4°C. The supernatant was then collected on ice, extracted using Sep‐Pak cartridges C18, lyophilized and kept at 4°C before HPLC‐MS/MS analysis. Immediately before the analysis, samples were suspended in 100 μl of 0.1% HCOOH in water/8% acetonitrile in auto‐sampler vials.\nHPLC‐MS/MS analysis was performed using a system consisting of an Agilent 1200 series HPLC system coupled with an Agilent 6410 Triple Quadruple mass spectrometer. Mass Hunter Workstation v. B.01.03 software was used for data collection and processing (Agilent Technologies, Santa Clara, California, US). The quantification of brain levels of RB5 and Scramble peptides was carried out using an internal standard curve with peptide concentrations ranging from 0.1 to 4 ng/μl. RB5 and Scramble peptides, and the internal standard were separated at room temperature by injecting 10 μl of extracted sample onto a Jupiter C4 300 A analytical column, 2 × 150 mm, 5 μm particle size (Phenomenex, CA). Gradient elution was used for chromatographic separation, using 0.1% formic acid in water as solvent A and acetonitrile as solvent B at a flow rate of 200 μl/min. The elution started with 92% of eluent A and 8% of eluent B maintained for 1 min, followed by a 4 min linear gradient to 75% of eluent B, a 1 min linear gradient to 99% of eluent B, a 2 min isocratic elution, and a 0.5 min linear gradient to 8% of eluent B, which was maintained for 9.5 min to equilibrate the column. The samples were maintained at 4°C in the autosampler.\nPeptides were then detected on an Agilent 6410 QQQ mass spectrometer using the following parameters: positive ion mode, 5 kV capillary voltage, cone voltage 500 V, gas flow rate 8 l/min at 350°C, nebulizer gas pressure 40 PSI at 350°C, well time 75 msec and Q1 and Q3 set to unit resolution."}, "[3]": {"test_system": "procedural learning (nose poke responses)", "assay": "9-hole operant boxes, FR1 nose poke, zQ175 mice with RB5", "settings": "for FR1 nose poke, AUC analysis: 20 mg/kg i.p. 1 h before session; for Nose poke responses (FR1): 9 days of treatment, 20 mg/kg i.p.", "description": "Operant testing was conducted in 16 9‐hole operant boxes as previously described (Yhnell et al, [2016a]). Each operant box contains a horizontal array of nine holes with infrared beams localized to the front of each hole to detect nose pokes. A peristaltic pump delivers liquid reinforcement (strawberry milk) into a magazine at the front of the box.\nA week before starting the training, mice underwent water restriction for 18 h/day and were kept under this regimen throughout the experimental procedures. Mice were taught to nose poke on a simple fixed ratio (FR1) schedule of reinforcement: to obtain reward, mice were required to respond to a stimulus light in the central hole via a single nose poke. zQ175 mice were trained daily on this program for 20‐min sessions for 10 days (training phase). Once trained, animals were subdivided into four groups and injected with RB5 or scramble (20 mg/kg, i.p.) peptides 1 h before being tested on the FR1 schedule for the other 9 days. At the end of the behavioral tests, mice were perfused with 4% PFA, and brains were processed for IHC or IF."}}, "note": "“And” between values parts separate entries of the source, which are not always exact repeats. Identical values can stand only once."}
{"substance": "SCR: ineffective Scramble version of RB5 containing a TAT sequence (GRKKRRQRRRPPRVGPGVPEGVGVAVFGVKEPGQTGDVGPVGE) [reference compound]", "values": [{"measurement": "p-MEK-1 positive cells in striatum", "setting": "MEK-1 phosphorylation", "value": "385.714 and 492.857 and 471.429 and 371.429 and 478.571 and 335.714 and 407.143 and 328.571 and 342.857 and 257.143 and 442.857 and 264.286 and 542.857"}, {"measurement": "phospho-Kv4.2 positive cells in striatum", "setting": "[1]", "value": "690.476 and 419.048 and 495.238 and 514.286 and 895.238 and 652.381 and 457.143 and 633.333 and 452.381 and 780.952 and 561.905 and 657.143 and 738.095 and 604.762"}, {"measurement": "Brain levels measured with mass spectrometry", "setting": "[2]; 1 h", "value": "6.434 and 8.14"}, {"measurement": "FR1 nose poke, AUC analysis", "setting": "[3]; WT females, treatment day 1", "value": 426}, {"measurement": "FR1 nose poke, AUC analysis", "setting": "[3]; WT females, treatment day 2", "value": 494}, {"measurement": "FR1 nose poke, AUC analysis", "setting": "[3]; WT females, treatment day 3", "value": 529}, {"measurement": "FR1 nose poke, AUC analysis", "setting": "[3]; WT females, treatment day 4", "value": 551}, {"measurement": "FR1 nose poke, AUC analysis", "setting": "[3]; WT females, treatment day 5", "value": 606}, {"measurement": "FR1 nose poke, AUC analysis", "setting": "[3]; WT females, treatment day 6", "value": 632}, {"measurement": "FR1 nose poke, AUC analysis", "setting": "[3]; WT females, treatment day 7", "value": 637}, {"measurement": "FR1 nose poke, AUC analysis", "setting": "[3]; WT females, treatment day 8", "value": 652}, {"measurement": "FR1 nose poke, AUC analysis", "setting": "[3]; WT females, treatment day 9", "value": 625}, {"measurement": "FR1 nose poke, AUC analysis", "setting": "[3]; zQ175 females, treatment day 1", "value": 79.44}, {"measurement": "FR1 nose poke, AUC analysis", "setting": "[3]; zQ175 females, treatment day 2", "value": 88.63}, {"measurement": "FR1 nose poke, AUC analysis", "setting": "[3]; zQ175 females, treatment day 3", "value": 81.25}, {"measurement": "FR1 nose poke, AUC analysis", "setting": "[3]; zQ175 females, treatment day 4", "value": 82.51}, {"measurement": "FR1 nose poke, AUC analysis", "setting": "[3]; zQ175 females, treatment day 5", "value": 86.56}, {"measurement": "FR1 nose poke, AUC analysis", "setting": "[3]; zQ175 females, treatment day 6", "value": 92.15}, {"measurement": "FR1 nose poke, AUC analysis", "setting": "[3]; zQ175 females, treatment day 7", "value": 90.83}, {"measurement": "FR1 nose poke, AUC analysis", "setting": "[3]; zQ175 females, treatment day 8", "value": 92.99}, {"measurement": "FR1 nose poke, AUC analysis", "setting": "[3]; zQ175 females, treatment day 9", "value": 83.24}]}
{"substance": "GRKKRRQRRRPPQGGGGGEPRRTEGVGPGVPGEVEMVKGQPFDV [RB5, six D-amino acids, acetylated N-terminus]", "values": [{"measurement": "p-MEK-1 positive cells in striatum", "setting": "MEK-1 phosphorylation", "value": "did not influence the phosphorylation and 335.714 and 385.714 and 421.429 and 400 and 314.286 and 271.429 and 307.143 and 464.286 and 371.429 and 428.571 and 392.857 and 285.714 and 500"}, {"measurement": "phospho-Kv4.2 positive cells in striatum", "setting": "[1]", "value": "did not influence the phosphorylation and 523.81 and 680.952 and 528.571 and 533.333 and 561.905 and 538.095 and 490.476 and 742.857 and 552.381 and 633.333 and 638.095 and 547.619"}, {"measurement": "Time RB5 is detectable in brain postinjection (mass spectrometry)", "setting": "[2]; mice", "value": "up to 6 h"}, {"measurement": "Brain levels measured with mass spectrometry", "setting": "[2]; 1 h", "value": "92.2252 and 89.7022 and 75.321 and 38.8889 and 66.5288"}, {"measurement": "Brain levels measured with mass spectrometry", "setting": "[2]; 3 h", "value": "119.5 and 39.8058 and 101.408 and 83.7545 and 96.934"}, {"measurement": "Brain levels measured with mass spectrometry", "setting": "[2]; 6 h", "value": "57.0702 and 47.9263 and 56.5714 and 68.7679 and 72.8353"}, {"measurement": "Brain levels measured with mass spectrometry", "setting": "[2]; 12 h", "value": "8.439 and 16.5056 and 9.465 and 6.558"}, {"measurement": "Nose poke responses (FR1)", "setting": "[3]; WT and zQ175 females", "value": "significantly enhanced responses"}, {"measurement": "FR1 nose poke, AUC analysis", "setting": "[3]; WT females, treatment day 1", "value": 696.2}, {"measurement": "FR1 nose poke, AUC analysis", "setting": "[3]; WT females, treatment day 2", "value": 784.67}, {"measurement": "FR1 nose poke, AUC analysis", "setting": "[3]; WT females, treatment day 3", "value": 771.56}, {"measurement": "FR1 nose poke, AUC analysis", "setting": "[3]; WT females, treatment day 4", "value": 796.53}, {"measurement": "FR1 nose poke, AUC analysis", "setting": "[3]; WT females, treatment day 5", "value": 786.86}, {"measurement": "FR1 nose poke, AUC analysis", "setting": "[3]; WT females, treatment day 6", "value": 819.62}, {"measurement": "FR1 nose poke, AUC analysis", "setting": "[3]; WT females, treatment day 7", "value": 786.91}, {"measurement": "FR1 nose poke, AUC analysis", "setting": "[3]; WT females, treatment day 8", "value": 844.4}, {"measurement": "FR1 nose poke, AUC analysis", "setting": "[3]; WT females, treatment day 9", "value": 832.09}, {"measurement": "FR1 nose poke, AUC analysis", "setting": "[3]; zQ175 females, treatment day 1", "value": 293.69}, {"measurement": "FR1 nose poke, AUC analysis", "setting": "[3]; zQ175 females, treatment day 2", "value": 300.15}, {"measurement": "FR1 nose poke, AUC analysis", "setting": "[3]; zQ175 females, treatment day 3", "value": 373.09}, {"measurement": "FR1 nose poke, AUC analysis", "setting": "[3]; zQ175 females, treatment day 4", "value": 374.4}, {"measurement": "FR1 nose poke, AUC analysis", "setting": "[3]; zQ175 females, treatment day 5", "value": 384.76}, {"measurement": "FR1 nose poke, AUC analysis", "setting": "[3]; zQ175 females, treatment day 6", "value": 413.69}, {"measurement": "FR1 nose poke, AUC analysis", "setting": "[3]; zQ175 females, treatment day 7", "value": 454.91}, {"measurement": "FR1 nose poke, AUC analysis", "setting": "[3]; zQ175 females, treatment day 8", "value": 338.07}, {"measurement": "FR1 nose poke, AUC analysis", "setting": "[3]; zQ175 females, treatment day 9", "value": 338.07}, {"measurement": "Nose poke responses (FR1)", "setting": "[3]; zQ175 males", "value": "did not alter responses"}]}
